Measured values published in EP0279787A1, “Pharmaceutical compositions with synergistic antisecretory action for the healing of gastroduodenal ulcer” (ISTITUTO DE ANGELI S.p.A., priority 1987, dated 1988).

System: gastric acid secretion
Assay: Lumen perfused stomach of the anaesthetized rat: inhibition of acid secretion evoked by histamine plus acetylcholine
Format: in vivo
Details: drug alone
Method: Experiments in lumen perfused stomach of the anaesthetized rat were performed, evoking acid secretion by histamin (0.5 mg/kg/h i.v.) and acetylcholine (0.5 mg/kg/h i.v.) given in combination. These two combined secretagogues evoked a response which was about 80% of the maximal effect achievable by maximally effective dose of either acetylcholine (8 mg/kg/h i.v.) or histamine (8 mg/kg/h i.v.) alone.
As soon as a steady level of acid output was reached, a combination of mifentidine/pirenzepine (1:10), or of DA-5047/pirenzepine (1:10) under the form of the compositions of the present invention, or mifentidine, DA-5047 and pirenzepine alone were administered intravenously. Each dose was administered to 8 animals.
The obtained data were submitted to linear regression analysis in order to calculate the dose inhibiting 50% (ED₅₀) the response of which is reported in the following table II: […]

SMILES: Cc1nc(-c2ccc(N=CNC(C)C)cc2)c[nH]1 [DA-5047, N-isopropyl-Nʹ-[4-(2- -methyl-imidazol-4-yl)phenyl]-formamidine]
- Percent inhibition (dose 20 µg/kg i.v.): 21%
- Percent inhibition (dose 40 µg/kg i.v.): 34%
- Percent inhibition (dose 80 µg/kg i.v.): 52%

SMILES: CC(C)NC=Nc1ccc(-c2c[nH]cn2)cc1 [Mifentidine, N-isopropyl-Nʹ-[4-(imidazol-4-yl)phenyl]-formamidines]
- Percent inhibition (dose 20 µg/kg i.v.): 20%
- Percent inhibition (dose 40 µg/kg i.v.): 36%
- Percent inhibition (dose 80 µg/kg i.v.): 58%

SMILES: CN1CCN(CC(=O)N2c3ccccc3C(=O)Nc3cccnc32)CC1 [Pirenzepine, reference compound]
- Percent inhibition (dose 200 µg/kg i.v.): 28%
- Percent inhibition (dose 400 µg/kg i.v.): 46%
- Percent inhibition (dose 800 µg/kg i.v.): 62%
